Here are results for three compounds from US4320141A, “Antitumor agent” (priority 1977, dated 1982).

Series [1] concerns tumor. Kind of series: Prophylactic effect on development of tumor (DMBA-initiated, croton oil-promoted, coated on depilated back). It counts as in vivo, ICR mice. The settings on record: groups of 10 mice, 4 months. An excerpt: To groups of 10 ICR mice, was applied 0.2% acetone solution of a cancerigenic agent, dimethylbenzanthracene (abbreviated hereinafter as DMBA) by coating said solution on the depilated back of the mice once a day for two weeks. From one week after the final administration of DMBA, an acetone solution of. 0.06% croton oil and a lotion containing an acetone solution of 0.06% croton oil and the active ingredient according to the present invention were coated successively on the back once a day for 4 months.
The lotion used above was prepared according to the following process:
A desired amount of α-tocopherol vitamin A acid ester was dissolved in 10 g of ethyl alcohol together with 0.5 g of […] sorbitan monolaurate and 6 g of glycerin and purified water were added thereto to make up the total 100 g. The solution thus obtained was stirred thoroughly to give lotion.

Series [2] in a line: Acute toxicity in mice (LD50). It counts as in vivo. The settings on record: for LD50: mouse, in vivo. An excerpt:
Acute toxicity in mice of α-tocopherol vitamin A acid ester which is the active ingredient of the antitumor agent of this invention is particularly low as shown below, even when any route of administration such as oral route, intraperitoneal route or intravenous injection is applied.

The subject of series [3] is tumor. In words: Therapeutic effect on tumor (DMBA-induced, hairless mice). The settings on record: three weeks, counted on each animal. It counts as in vivo. How it is done: On the back of hairless mice was coated 0.2% DMBA dissolved in olive oil with a brush three times a week for 2 months. After confirmation of development of tumor, test zone comprising groups of five mice was arranged indiscriminately. To these animals was administered α-tocopherol vitamin A acid ester either topically or orally and change of tumor was observed.
the back of animal twice a day with brush.

The test system of series [4] is experimental tumor developed on epithelial cells. The settings on record: prophylaxis or therapy of experimental tumor; cited from earlier work.
For series [5] the following is noted: in vivo; cited from earlier work.
The mark [6] stands for this setting: 0.3% lotion, percutaneous, without croton oil.
Where [7] appears, read: croton oil + 0.02% lotion, percutaneous, croton oil alone 10.
Setting [8] is: croton oil + 0.3% lotion, percutaneous, croton oil alone 10.
[9] abbreviates: intravenous, read-out: LD50, intravenous injection.
[10] abbreviates: ip, intraperitoneal, read-out: LD50, intraperitoneal administration.
The mark [11] stands for this setting: oral, read-out: LD50, oral administration.
Where [12] appears, read: 0.01% lotion, topical twice a day, control 5.
Where [13] appears, read: 0.01% lotion, topical twice a day, control 8.
Where [14] appears, read: 0.01% lotion, topical twice a day, control 17.
Where [15] appears, read: 0.05% lotion, topical twice a day, control 5.
Setting [16] is: 0.05% lotion, topical twice a day, control 8.
The mark [17] stands for this setting: 0.05% lotion, topical twice a day, control 17.

Like-named read-outs stand apart in the source and are kept apart here. A value given as a limit tells only on which side of the number the result lay.

For `CC1=C(/C=C/C(C)=C/C=C/C(C)=C\C(=O)Oc2c(C)c(C)c3c(c2C)CCC(C)(CCCC(C)CCCC(C)CCCC(C)C)O3)C(C)(C)CCC1` (stereo not drawn) [α-tocopherol-13-cis-vitamin A acid ester], the “Number of animals in which tumor was developed” value in the series on tumor [1] (setting [6]) is 0; in the series on tumor [1] (setting [7]) it was 4; in the series with tumor [1] (setting [8]) it was 2. For the same compound, the results for the LD50 in series [2] (setting [9]), in series [2] (setting [10]) and in series [2] (setting [11]) were more than 1000 mg/kg, more than 10000 mg/kg and more than 10000 mg/kg, respectively. In addition, the “Average number of tumor, smaller than 2mm” value in the series with tumor [3] (setting [12]) stood at 8; in the series on tumor [3] (setting [15]), 4. Moreover, the “Average number of tumor, 5-2mm” value in the series with tumor [3] (setting [13]) was 3; in the series with tumor [3] (setting [16]), 6. Moreover, the entries for the “Average number of tumor, larger than 5mm” value in the series with tumor [3] (setting [14]) and in the series with tumor [3] (setting [17]) were 4 and 2, respectively.

In the case of `CC1=C(/C=C/C(C)=C/C=C/C(C)=C/C(=O)Oc2c(C)c(C)c3c(c2C)CCC(C)(CCCC(C)CCCC(C)CCCC(C)C)O3)C(C)(C)CCC1` (stereo not drawn) [α-tocopherol-trans-vitamin A acid ester], the “Number of animals in which tumor was developed” value in the series on tumor [1] (setting [6]) is on record as 0; with tumor [1] (setting [7]), 5; in the series with tumor [1] (croton oil + 200mg/day, oral, croton oil alone 10) it was 3; in the series with tumor [1] (setting [8]), 2. For the same compound, the values for the LD50 in series [2] (setting [9]), in series [2] (setting [10]) and in series [2] (setting [11]) were more than 1000 mg/kg, more than 10000 mg/kg and more than 10000 mg/kg, respectively. Besides, the “Average number of tumor, smaller than 2mm” value in the series on tumor [3] (setting [12]) was determined as 8; with tumor [3] (setting [15]), 13; with tumor [3] (200mg/kg, oral, control (topical) 5) it was 10; with tumor [3] (500mg/kg, oral, control (topical) 5) it was 6. For the same compound, the “Average number of tumor, 5-2mm” value stood at 5 with tumor [3] (setting [13]); 6 in the series on tumor [3] (setting [16]); 6 in the series on tumor [3] (200mg/kg, oral, control (topical) 8); 5 with tumor [3] (500mg/kg, oral, control (topical) 8). Moreover, the “Average number of tumor, larger than 5mm” value with tumor [3] (setting [14]) was 7; in the series on tumor [3] (setting [17]), 1; with tumor [3] (200mg/kg, oral, control (topical) 17), 4; with tumor [3] (500mg/kg, oral, control (topical) 17), 2.

Turning to `CC1=C(/C=C/C(C)=C/C=C/C(C)=C/C(=O)O)C(C)(C)CCC1` [Vitamin A acid, vitamin A acid, reference compound], the “Antitumor activity (in words)” value in series [4] is on record as “effective for prophylaxis of development or therapy of experimental tumor developed on epithelial cells”. Also, the “Toxicity (in words)” value in series [5] is given as “quite strongly toxic”. The “LD50, intraperitoneal administration” value in series [2] (intraperitoneal) came out at 150 mg/kg. In series [2] (intravenous), the “LD50, intravenous injection” value came to 92 mg/kg. The “LD50, oral administration” value in series [2] (oral) is listed as 780 mg/kg.
